Source: the NIST ThermoML archive (doi:10.1016/j.jct.2016.04.014)

Assay: xn = mol fraction of the nth substance listed
Details: Liquid, Vibrating tube method

CCCCCCC [heptane] + CCO
mass density [kg/m3]
Details	100 kPa	500 kPa	5000 kPa	10000 kPa	15000 kPa	20000 kPa	25000 kPa	30000 kPa	35000 kPa	40000 kPa
293.15 K, x1 = 0.2505	737.7	738.1	742.1	746.4	750.4	754.3	757.9	761.4	764.7	768
293.15 K, x1 = 0.5004	711	711.3	715.4	719.8	723.8	727.7	731.3	734.8	738.1	741.4
293.15 K, x1 = 0.7501	694.3	694.6	698.7	703	707.1	710.9	714.6	718	721.4	724.6
303.15 K, x1 = 0.2505	728.9	729.3	733.6	738.2	742.4	746.5	750.3	754	757.5	760.8
303.15 K, x1 = 0.5004	702.1	702.5	706.9	711.5	715.8	719.9	723.8	727.4	730.9	734.3
303.15 K, x1 = 0.7501	685.4	685.8	690.3	694.9	699.2	703.3	707.1	710.8	714.3	717.6
313.15 K, x1 = 0.2505	719.9	720.3	725	729.8	734.3	738.6	742.6	746.5	750.1	753.7
313.15 K, x1 = 0.5004	693	693.4	698.2	703.1	707.7	712	716.1	720	723.7	727.2
313.15 K, x1 = 0.7501	676.4	676.9	681.6	686.6	691.2	695.5	699.6	703.4	707.1	710.6
323.15 K, x1 = 0.2505	710.6	711.1	716.1	721.2	–	–	–	–	–	–
323.15 K, x1 = 0.5004	683.6	684.1	689.2	694.5	–	–	–	–	–	–
323.15 K, x1 = 0.7501	667.2	667.6	672.8	678.1	–	–	–	–	–	–
